Activity calls are given as the source filed them. The calls are words filed in the database; no cut-off is given here. Residues, ends and D or L forms follow the SMILES beside them. *: point of attachment. Succinyl(O21-dexamethasone) = C[C@@H]1C[C@H]2[C@@H]3CCC4=CC(=O)C=C[C@]4(C)[C@@]3(F)[C@@H](O)C[C@]2(C)[C@@]1(O)C(=O)COC(=O)CCC(=O)*
Key:
Mus musculus [1] = experiment: Antiinflammatory activity in xylene-induced ICR mouse edema model assessed as decrease in plasma IL8 level at 25.5 umol/kg, po after 60 mins by microplate reader analysis; format: functional, organism-based
Mus musculus [2] = experiment: Toxicity in BALB/C mouse assessed as total volumetric bone mineral density at 1.43 umol/kg/day, po administered for 15 days (reference value: 554.3 +/- 17.2 mg/cm3); format: organism-based; conditions: in vivo, 360 h
Mus musculus [3] = experiment: Antiinflammatory activity in ICR mouse assessed as inhibition of xylene-induced edema at 25.5 umol/kg, po administered for 30 mins prior to xylene challenge measured after 2 hrs; format: functional, organism-based
[4] = Drug metabolism in cytosome of human A549 cells assessed as dexamethasone dimer formation at 1 uM by ESI-MS analysis; format: ADME, cell-based, Cytoplasm; conditions: a549, 1 µM
Mus musculus [5] = experiment: Toxicity in BALB/C mouse assessed as decrease in dry femur weight at 1.43 umol/kg/day, po administered for 15 days; format: organism-based; conditions: in vivo, 360 h
Mus musculus [6] = experiment: Antiinflammatory activity in xylene-induced ICR mouse edema model assessed as decrease in plasma TNFalpha level at 25.5 umol/kg, po after 60 mins by microplate reader analysis; format: functional, organism-based
A549 = experiment: Downregulation of DNA replication in human A549 cells at 1 uM after 48 hrs by UV-visible spectrophotometric analysis; format: functional, cell-based
Mus musculus [7] = experiment: Toxicity in BALB/C mouse assessed as decrease in femur calcium level at 1.43 umol/kg/day, po administered for 15 days by o-methylphenolphthalein complexing ketone-based assay; format: organism-based; conditions: in vivo, 360 h
Mus musculus [8] = experiment: Toxicity in BALB/C mouse assessed as decrease in femur phosphor level at 1.43 umol/kg/day, po administered for 15 days by molybdenum blue-based assay; format: organism-based; conditions: in vivo, 360 h
Mus musculus [9] = experiment: Toxicity in BALB/C mouse assessed as femur loss at 1.43 umol/kg/day, po administered for 15 days by pQCT analysis; format: organism-based; conditions: in vivo, 360 h
Mus musculus [10] = experiment: Toxicity in BALB/C mouse assessed as decrease in ash weight at 1.43 umol/kg/day, po administered for 15 days; format: organism-based; conditions: in vivo, 360 h
Mus musculus [11] = experiment: Antiinflammatory activity in po dosed ICR mouse assessed as inhibition of xylene-induced edema administered for 30 mins prior to xylene challenge measured after 2 hrs; format: functional, organism-based

| SMILES | Activity (Mus musculus [1]) | Activity (Mus musculus [2]) [mg/cm3] | inhibition (Mus musculus [3]) | Drug metabolism [4] | Activity (Mus musculus [5]) | Activity (Mus musculus [6]) | Activity (A549) | Activity (Mus musculus [7]) | Activity (Mus musculus [8]) | Activity (Mus musculus [9]) | Activity (Mus musculus [10]) | inhibition (Mus musculus [11]) |
| --- | --- | --- | --- | --- | --- | --- | --- | --- | --- | --- | --- | --- |
| C[C@@H]1C[C@H]2[C@@H]3CCC4=CC(=O)C=C[C@]4(C)[C@@]3(F)[C@@H](O)C[C@]2(C)[C@@]1(O)C(=O)COC(=O)CCC(=O)N[C@@H](CCCNC(=N)N)C(=O)NCC(=O)N[C@@H](CC(=O)O)C(=O)N[C@@H](Cc1ccccc1)C(=O)O ({Succinyl(O21-dexamethasone)}-RGDF-OH) | Active | 555.1 | Active | metabolite_detected | Non-toxic | Active | Active |  |  |  |  |  |
| CC(C)[C@H](NC(=O)[C@H](CC(=O)O)NC(=O)CNC(=O)[C@H](CCCNC(=N)N)NC(=O)CCC(=O)OCC(=O)[C@@]1(O)[C@H](C)C[C@H]2[C@@H]3CCC4=CC(=O)C=C[C@]4(C)[C@@]3(F)[C@@H](O)C[C@@]21C)C(=O)O ({Succinyl(O21-dexamethasone)}-RGDV-OH) | Active | 540.3 | Active | metabolite_detected | Non-toxic | Active | Active |  |  |  |  |  |
| C[C@@H]1C[C@H]2[C@@H]3CCC4=CC(=O)C=C[C@]4(C)[C@@]3(F)[C@@H](O)C[C@]2(C)[C@@]1(O)C(=O)CO [DEXAMETHASONE] | Active | 506.3 | Active |  | Toxic | Active | Active | Toxic | Non-toxic | Toxic | Toxic |  |
| C[C@@H]1C[C@H]2[C@@H]3CCC4=CC(=O)C=C[C@]4(C)[C@@]3(F)[C@@H](O)C[C@]2(C)[C@@]1(O)C(=O)COC(=O)CCC(=O)N[C@@H](CCCNC(=N)N)C(=O)NCC(=O)N[C@@H](CC(=O)O)C(=O)N[C@@H](CO)C(=O)O ({Succinyl(O21-dexamethasone)}-RGDS-OH) | Active | 558.5 |  | metabolite_detected | Non-toxic | Active | Active |  |  |  |  | Dose-dependent effect |

From ChEMBL document CHEMBL3739418, “RGD-peptides modifying dexamethasone: to enhance the anti-inflammatory efficacy and limit the risk of osteoporosis” (Medchemcomm, 2015)
